Experimental data from US11535627B2, “Pyrimidine derivative compound, pharmaceutically acceptable salt thereof, preparation process thereof, and pharmaceutical composition using the same” (Spark Biopharma, Inc., priority 2016, dated 2022).
Entries after “also recorded” stand apart in the source; their conditions may differ.

How the values were obtained:
Human LRS proteins = target: T1, Human LRS proteins (Homo sapiens, UniProt Q9P2J5); assay: Surface plasmon resonance (SPR) binding to LRS
T1 construct: His
Protocol: The dissociation […] constant (KD) toward His-LRS proteins was determined by using SPR instrument (Biacore T100) at the national center for inter-university research facilities (NCIRF) in Seoul National University. The carboxyl group on the surface of CMS chip was able to be replaced with protein by forming reactive succinimide ester with 1-ethyl-3-(3-dimethylaminopropyl)-carbodiimide (EDC) and N-hydroxysuccinimide (NHS). Human LRS proteins (1.5×PBS, pH 7.3) were immobilized on flow cell 2 (imed RU; 12000) by leading to amide bond formation with NHS ester. The residual NHS ester was quenched with 1 M ethanolamine-HCl (pH 8.0). Amide bond formation alone, without any protein t, was performed on flow cell 1 as a control. The immobilization process was proceeded on PBS buffer. After the immobilization of hLRS, compounds were flowed for 60 s at a flow rate of 20 μl min^−1 in various concentrations from 1 μM to […] was then flowed at the same flow rate for 200 s for dissociation of compounds. As a running buffer, 1×PBS (pH 7.3) containing 3% DMSO and 0.005% P2O was used. The experiment was performed at 25° C. Data analysis was done by using Biacore T100 Evaluation software. […] The dissociation constant (KD) was calculated by fitting to the 1:1 binding model.

mTORC1 [1] = assay: Western blotting, mTORC1 signalling in DU145 cells; format: cell-based
Protocol: (§1) HEK293T cell was cultured in Dulbecco modified eagle medium (DMEM) with 10% (v/v) fetal bovine serum (FBS) and 1% (v/v) antibiotic-antimycotic solution. HeLa, DU145, and Ca Ski cells were cultured in RPMI 1640 medium with 10% (v/v) FBS and 1% (v/v) antibiotic-antimycotic solution. The cells were cultured in 100-mm culture dish in an incubator at 37° C., in 5% CO2.
(§2) Cells were lysed with Radio-ImmunoPrecipitation Assay (RIPA) buffer (50 mM Tris, pH 7.8, 150 mM NaCl, 0.5% deoxycholate, 1% IGEPAL CA-630, protease inhibitor cocktail, and phosphatase inhibitors). Protein was obtained by transferring supernatant after centrifugation at 15000 rpm for 20 min. Protein concentration was measured with Micro BCA™ protein assay kit. Overall protein sampling procedure was done at 4° C. Prepared protein samples were analyzed with SDS-PAGE. Protein after electrophoresis was transferred into nitrocellulose membrane. Membrane was blocked with TBST mixed with 2% BSA over at least 1 h at r.t. Primary antibodies were incubated overnight at 4° C. […]

mTORC1 [2] = assay: Western blotting, mTORC1 signalling in Ca Ski cells; format: cell-based
Protocol: as §1, §2

mTORC1 [3] = assay: Western blotting, mTORC1 signalling pathway in HEK293T cells; format: cell-based
Protocol: HEK293T cell was cultured in Dulbecco modified eagle medium (DMEM) with 10% (v/v) fetal bovine serum (FBS) and 1% (v/v) antibiotic-antimycotic solution. […] The cells were cultured in 100-mm culture dish in an incubator at 37° C., in 5% CO2.
Cells were lysed with Radio-ImmunoPrecipitation Assay (RIPA) buffer (50 mM Tris, pH 7.8, 150 mM NaCl, 0.5% deoxycholate, 1% IGEPAL CA-630, protease inhibitor cocktail, and phosphatase inhibitors). Protein was obtained by transferring supernatant after centrifugation at 15000 rpm for 20 min. Protein concentration was measured with Micro BCA™ protein assay kit. Overall protein sampling procedure was done at 4° C. Prepared protein samples were analyzed with SDS-PAGE. Protein after electrophoresis was transferred into nitrocellulose membrane. Membrane was blocked with TBST mixed with 2% BSA over at least 1 h at r.t. Primary antibodies were incubated overnight at 4° C. […] After washing with TBST, HRP-labeled anti-rabbit IgG secondary antibody was treated at room temperature for 1 h. After washing with TBST, developing by Amersham ECL prime solution was done. Chemiluminescent signal was imaged by ChemiDoc™ MP imaging system.

AMPK signaling pathways = assay: Western blotting, phospho-T172 AMPKα in HEK293T cells; format: cell-based
Protocol: as §1, §2

LRS-RagD interaction = LRS-RagD interaction (Homo sapiens, UniProt Q9P2J5); assay: ELISA of LRS-RagD interaction; format: binding
Protocol: His-tagged human LRS proteins were diluted in carbonate buffer (100 mM, pH 9.6) to the concentration of 0.5 ng μl^−1. […] Protein from each well was removed and washed three times with PBS mixed with 0.05% Tweed® 20 (PBST), subjected to blocking with PBS containing 5% bovine serum albumin (BSA) for 2 hours. Each well was washed with PBST, followed by the treatment of a compound and GST-tagged human RagD protein simultaneously for 3 hours. GST protein itself was used as a negative control. Each well was treated with GST antibody diluted in PBST and incubated at room temperature for 1 h. After washing with PBST, the HRP-conjugated anti-horse IgG secondary antibody was incubated at room temperature for 1 h. TMB was added to each well for colorimetric development. […] To stop the chemical reaction, the treatment with 1 m H3PO4 was done. Finally, absorbance at 450 nm were measured.

[4] = test system: mTORC2 signaling pathways; assay: Western blotting, phospho-S473 Akt in HEK293T cells; format: cell-based
Protocol: as §1, §2

HEK293T cells = assay: Cell proliferation assay (BrdU); format: cell-based; conditions: 5 μM, in the presence of Leu
Protocol: HEK293T cells were seeded in 96-well plate from CORNING. 24 h after seeding, the compound diluted with DMEM at 5 μM of final concentration was treated in cells while leucine-free DMEM was treated in cells as a control. Cell division assay was done with WSTs assay and BrdU colorimetric kit, following the manufacturer's protocol.

[5] = test system: HeLa human cervical cancer cells; assay: Western blot analysis of LC3 and p62 (autophagy) in HeLa cells; format: cell-based
Protocol: as §1
Cells were lysed with Radio-ImmunoPrecipitation Assay (RIPA) buffer (50 mM Tris, pH 7.8, 150 mM NaCl, 0.5% deoxycholate, 1% IGEPAL CA-630, protease inhibitor cocktail, and phosphatase inhibitors). Protein was obtained by transferring supernatant after centrifugation at 15000 rpm for 20 min. Protein concentration was measured with Micro BCA™ protein assay kit. Overall protein sampling procedure was done at 4° C. Prepared protein samples were analyzed with SDS-PAGE. Protein after electrophoresis was transferred into nitrocellulose membrane. Membrane was blocked with TBST mixed with 2% BSA over at least 1 h at r.t. Primary antibodies were incubated overnight at 4° C. The treatment concentration was as follows: Anti-LC3B (ab51520); 1:1000, anti-S6K1 (ab32359); 1:1000, anti-phospho-T389 S6K1 (ab2571); 1:800, anti-p62 (CST 5114); 1:1000, anti-glyceraldehyde-3-phosphate dehydrogenase (GAPDH) (CST 2118); 1:1000, anti-phospho-S65 4E-BP1 (CST 9451); 1:1000, anti-phospho-S757 ULK1 (CST 6888); 1:800, anti-phospho-S473 Akt (CST 4058); 1:1000, anti-phospho-T172 AMPKα (CST 2531). After washing with TBST, HRP-labeled anti-rabbit IgG secondary antibody was treated at room temperature for 1 h. After washing with TBST, developing by Amersham ECL prime solution was done. Chemiluminescent signal was imaged by ChemiDoc™ MP imaging system.

HeLa cells = assay: mCherry-GFP-LC3 puncta imaging; format: cell-based, human; conditions: 6 h, 200 nM Rap, 10 nM Baf, 20 μM 21f
Protocol: HeLa cells were seeded in chambered coverglass from Nunc and incubated for 24 h. mCherry-GFP-LC3 plasmid was transfected to the cells using Lipofectamine™ 2000 solution. Transfection was proceeded according to manufacturer's protocol.
DeltaVision Elite imaging system was used for the imaging of mCherry-GFP-LC3 transfected HeLa cell. For live-cell imaging, chamber was maintained at 37° C. and in 5% CO2. […] The wavelength range of the used filters is as follows: mCherry (Excitation: 575/25 nm, Emission: 625/45 nm); GFP (Excitation: 475/28 nm, Emission: 525/48 nm). Images were processed and analyzed with SoftWorks deconvolution software.

[6] = HEK293T cells, 20, 10, 5 and 1 μM, 3 h
[7] = 6 h, 200 nM Rap, 10 nM Baf, 20 μM 21f, compared with DMSO

Sequence of LRS-RagD interaction (Q9P2J5 whole entry): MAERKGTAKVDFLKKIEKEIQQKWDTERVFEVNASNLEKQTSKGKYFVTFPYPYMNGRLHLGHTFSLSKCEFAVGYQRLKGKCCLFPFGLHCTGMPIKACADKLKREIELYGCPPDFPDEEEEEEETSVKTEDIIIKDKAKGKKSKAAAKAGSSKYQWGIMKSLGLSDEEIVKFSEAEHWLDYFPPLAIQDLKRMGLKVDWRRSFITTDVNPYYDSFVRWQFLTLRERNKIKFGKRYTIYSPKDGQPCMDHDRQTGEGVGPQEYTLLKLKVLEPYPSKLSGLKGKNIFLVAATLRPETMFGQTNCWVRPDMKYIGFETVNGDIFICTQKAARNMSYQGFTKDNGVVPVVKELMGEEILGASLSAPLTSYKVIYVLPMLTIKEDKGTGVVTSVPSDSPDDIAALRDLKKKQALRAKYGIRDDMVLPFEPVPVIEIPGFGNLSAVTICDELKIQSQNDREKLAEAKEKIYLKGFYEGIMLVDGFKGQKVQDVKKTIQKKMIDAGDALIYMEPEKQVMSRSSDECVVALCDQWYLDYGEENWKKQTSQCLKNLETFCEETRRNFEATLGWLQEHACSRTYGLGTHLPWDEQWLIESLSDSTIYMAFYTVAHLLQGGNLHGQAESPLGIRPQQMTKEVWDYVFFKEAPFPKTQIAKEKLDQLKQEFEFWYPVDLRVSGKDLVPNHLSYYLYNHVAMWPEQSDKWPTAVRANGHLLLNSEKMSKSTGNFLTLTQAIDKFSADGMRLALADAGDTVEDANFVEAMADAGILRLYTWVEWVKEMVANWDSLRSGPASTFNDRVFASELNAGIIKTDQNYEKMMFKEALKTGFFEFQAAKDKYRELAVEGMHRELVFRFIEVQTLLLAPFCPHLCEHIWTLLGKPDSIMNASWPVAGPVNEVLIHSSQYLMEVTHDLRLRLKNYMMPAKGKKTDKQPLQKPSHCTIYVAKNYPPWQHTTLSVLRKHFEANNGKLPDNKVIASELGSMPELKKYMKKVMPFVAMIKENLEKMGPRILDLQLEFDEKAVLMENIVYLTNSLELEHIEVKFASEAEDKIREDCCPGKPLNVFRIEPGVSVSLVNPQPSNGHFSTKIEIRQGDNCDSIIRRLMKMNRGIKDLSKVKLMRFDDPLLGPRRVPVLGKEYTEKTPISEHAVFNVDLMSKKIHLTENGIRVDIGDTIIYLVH
T1 sequence (Q9P2J5 whole entry): as above

Cc1cc(C)cc(CN2C[C@H]3CN3Cc3c(N(C)Cc4ccccc4)ncnc32)c1 (stereo partly shown) [Compound 21f]
Kd (Human LRS proteins): 4.5 µM
concentration-dependent binding to LRS (SPR) (Human LRS proteins; purified LRS): concentration-dependent binding to LRS
western blotting results, procedure of FIG. 15d (mTORC1 [1]): same as those from HEK293T cells
western blotting results, procedure of FIG. 15d (mTORC1 [2]): same as those from HEK293T cells
inhibition degree against phospho-S757 ULK1 (mTORC1 [3]; HEK293T cells, 0-24 h, 21f 10 μM, rapamycin 500 nM): high inhibition degree
Phospho-T389 S6K1, time course (mTORC1 [3]; HEK293T cells, 10 μM, 0-24 h): reduced in cells treated with 21f as time passed
duration of the effect on mTORC1 within cells (mTORC1 [3]; HEK293T cells, 10 μM, 0-24 h): at least 12 h
phospho-S65 4E-BP1, time course (mTORC1 [3]; HEK293T cells, 10 μM, 0-24 h): reduced in cells treated with 21f as time passed
phospho-S757 ULK1, time course (mTORC1 [3]; HEK293T cells, 10 μM, 0-24 h): reduced in cells treated with 21f as time passed
amount of phospho-T389 S6K1 (mTORC1 [3]; HEK293T cells, 20 μM, 3 h): reduced amount of phospho-T389 S6K1
phosphorylation suppression of S6K1 by western blotting (mTORC1 [3]; HEK293T cells, 20 μM, 3 h, phospho-T389 S6K1 relative to DMSO): 48.9%
Phospho-T389 S6K1 (mTORC1 [3]; [6]): reduced in cells treated with 21f in a dose-dependent manner
phospho-S65 4E-BP1 (mTORC1 [3]; [6]): reduced in cells treated with 21f in a dose-dependent manner
phospho-S757 ULK1 (mTORC1 [3]; [6]): reduced in cells treated with 21f in a dose-dependent manner
phospho-T172 AMPKα, time course (AMPK signaling pathways; HEK293T cells, 10 μM, 0-24 h): no effects
phospho-T172 AMPKα (AMPK signaling pathways; [6]): no effects
dose-dependent inhibition of the LRS-RagD interaction (dose-response curves in ELISA) (LRS-RagD interaction): inhibit the LRS-RagD interaction in a dose-dependent manner
reduction of LRS-RagD interaction by ELISA (LRS-RagD interaction): 30.2%
phospho-S473 Akt, time course ([4]; HEK293T cells, 10 μM, 0-24 h): no effects
phospho-S473 Akt [4, 6]: no effects
cellular division level by BrdU assay (HEK293T cells): suppressed cell proliferation even in the presence of Leu; also recorded: cellular division was inhibited as treatment time passed
LC3 I/LC3 II ratio [5, 7]: lowering LC3 I/LC3 II ratio
p62 level [5, 7]: stimulated the degradation of p62; also recorded: reducing p62 level
cellular level of LC3 II ([5]; in the presence of Leu): increased the cellular level of LC3 II
mCherry and GFP fluorescence (mCherry-GFP-LC3) (HeLa cells): red fluorescence
